Measurements published in patent publication US20100280035A1, “SOLID PHARMACEUTICAL COMPOSITION COMPRISING 1-(4-CHLOROANILINO)-4-(4-PYRIDYLMETHYL)PHTHALAZINE AND A PH MODIFIER” (priority 2005, published 2010).

Test: Permeability of the Agent in the small intestine

Clc1ccc(Nc2nnc(Cc3ccncc3)c3ccccc23)cc1.O=C(O)CCC(=O)O [Agent, 1-(4-chloroanilino)-4-(4-pyridylmethyl)phthalazine succinate]
permeability: good
